{
  "source": "patent US8501713B2",
  "about": "“Drug combinations for the treatment of duchenne muscular dystrophy” (Summit Corporation PLC, priority 2007, dated 2013)",
  "data": [
    {"system": "Utrophin A promoter linked to a luciferase reporter gene", "test": "Luciferase reporter assay (murine H2K cells)", "type": "cell-based", "conditions": "Mus musculus, H2K mdx, luciferase level relative to control; H2K/mdx/Utro A reporter cells; compound 10 μM final concentration; read-out: Activity", "outline": "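Compound at 10 μM final was applied for 48 hrs to plated H2K mdx myoblasts (33° C, 10% CO2, interferon-containing medium) bearing a luciferase gene under the utrophin A promoter. Luminescence from lysed cells served as read-out.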", "units": {"activity at 10 µM": "%"}, "values": [
      {"smiles": "COc1ccc(-c2ccc3oc(-c4ccc(C)cc4)nc3c2)cc1", "note": "[Example 199, 5-(4-methoxyphenyl)-2-p-tolylbenzo[d]oxazole]", "activity at 10 µM": "< 200"},
      {"smiles": "CCCC(=O)Nc1ccc2oc(-c3cccc(C)c3)nc2c1", "note": "[Example 200, N-(2-m-tolylbenzo[d]oxazol-5-yl)butyramide]", "activity at 10 µM": "> 401"},
      {"smiles": "CCCC(=O)Nc1ccc2oc(-c3cccc(N(C)C)c3)nc2c1", "note": "[Example 201, N-(2-(3-(dimethylamino)phenyl)benzo[d]oxazol-5-yl)butyramide]", "activity at 10 µM": "< 200"},
      {"smiles": "Cc1cccc(-c2nc3cc(NC(=O)C(C)C)ccc3o2)c1", "note": "[Example 202, N-(2-m-tolylbenzo[d]oxazol-5-yl)isobutyramide]", "activity at 10 µM": "> 401"},
      {"smiles": "CC(C)C(=O)Nc1ccc2oc(-c3cccc(C(F)(F)F)c3)nc2c1", "note": "[Example 203, N-(2-(3-(trifluoromethyl)phenyl)benzo[d]oxazol-5-yl)isobutyramide]", "activity at 10 µM": "< 200"},
      {"smiles": "CC(C)C(=O)Nc1ccc2oc(-c3cccc(N(C)C)c3)nc2c1", "note": "[Example 204, N-(2-(3-(dimethylamino)phenyl)benzo[d]oxazol-5-yl)isobutyramide]", "activity at 10 µM": "> 401"},
      {"smiles": "Cc1ccccc1-c1nc2cc(N)ccc2o1", "note": "[Example 205, 2-o-tolylbenzo[d]oxazol-5-amine]", "activity at 10 µM": "301 to 400"},
      {"smiles": "Nc1ccc2oc(-c3ccccc3Cl)nc2c1", "note": "[Example 206, 2-(2-chlorophenyl)benzo[d]oxazol-5-amine]", "activity at 10 µM": "201 to 300"},
      {"smiles": "CCC(=O)Nc1ccc2oc(-c3ccc(Cl)cc3)nc2c1", "note": "[Example 207, N-(2-(4-chlorophenyl)benzo[d]oxazol-5-yl)propionamide]", "activity at 10 µM": "> 401"},
      {"smiles": "Cc1ccc(-c2nc3cc(NC(=O)C(C)(C)C)ccc3o2)cc1", "note": "[Example 208, N-(2-p-tolylbenzo[d]oxazol-5-yl)pivalamide]", "activity at 10 µM": "201 to 300"},
      {"smiles": "Cc1ccc(-c2nc3cc(NC(=O)C(F)(F)F)ccc3o2)cc1", "note": "[Example 209, 2,2,2-trifluoro-N-(2-p-tolylbenzo[d]oxazol-5-yl)acetamide]", "activity at 10 µM": "201 to 300"},
      {"smiles": "CC(C)(C)C(=O)Nc1ccc2oc(-c3ccc(Cl)cc3)nc2c1", "note": "[Example 210, N-(2-(4-chlorophenyl)benzo[d]oxazol-5-yl)pivalamide]", "activity at 10 µM": "201 to 300"},
      {"smiles": "O=C(Nc1ccc2oc(-c3ccc(Cl)cc3)nc2c1)C(F)(F)F", "note": "[Example 211, N-(2-(4-chlorophenyl)benzo[d]oxazol-5-yl)-2,2,2-trifluoroacetamide]", "activity at 10 µM": "201 to 300"},
      {"smiles": "Cc1ccc(-c2nc3cc(Br)cnc3o2)cc1", "note": "[Example 212, 6-bromo-2-p-tolyloxazolo[5,4-b]pyridine]", "activity at 10 µM": "201 to 300"},
      {"smiles": "Cc1ccc(-c2nc3cc(N)ccc3s2)cc1", "note": "[Example 213, 2-p-tolylbenzo[d]thiazol-5-amine]", "activity at 10 µM": "< 200"},
      {"smiles": "O=[N+]([O-])c1ccc2oc(Cc3ccccc3)nc2c1", "note": "[Example 214, 2-benzyl-5-nitrobenzo[d]oxazole]", "activity at 10 µM": "< 200"},
      {"smiles": "Cc1ccc(-c2nc3cc(C)c(C)cc3o2)cc1", "note": "[Example 215, 5,6-dimethyl-2-p-tolylbenzo[d]oxazole]", "activity at 10 µM": "> 401"},
      {"smiles": "CCCC(=O)Nc1ccc2sc(-c3ccc(C)cc3)nc2c1", "note": "[Example 216, N-(2-p-tolylbenzo[d]thiazol-5-yl)butyramide]", "activity at 10 µM": "> 401"},
      {"smiles": "Cc1ccc(-c2nc3cc(NC(=O)C(C)C)ccc3s2)cc1", "note": "[Example 217, N-(2-p-tolylbenzo[d]thiazol-5-yl)isobutyramide]", "activity at 10 µM": "> 401"},
      {"smiles": "Cc1ccc(-c2nc3cc(C(N)=O)ccc3o2)cc1", "note": "[Example 218, 2-p-tolylbenzo[d]oxazole-5-carboxamide]", "activity at 10 µM": "> 401"},
      {"smiles": "CCC(=O)N(C)c1ccc2oc(-c3ccc(Cl)cc3)nc2c1", "note": "[Example 219, N-(2-(4-chlorophenyl)benzo[d]oxazol-5-yl)-N-methylpropionamide]", "activity at 10 µM": "301 to 400"},
      {"smiles": "CC(C)S(=O)(=O)Nc1ccc2oc(-c3ccccc3)nc2c1", "note": "[Example 220, N-(2-phenylbenzo[d]oxazol-5-yl)propane-2-sulfonamide]", "activity at 10 µM": "201 to 300"},
      {"smiles": "O=S(=O)(Nc1ccc2oc(-c3ccccc3)nc2c1)c1ccccc1", "note": "[Example 221, N-(2-phenylbenzo[d]oxazol-5-yl)benzenesulfonamide]", "activity at 10 µM": "< 200"},
      {"smiles": "Cc1cc2nc(-c3ccc(Cl)cc3)oc2cc1C", "note": "[Example 222, 2-(4-chlorophenyl)-5,6-dimethylbenzo[d]oxazole]", "activity at 10 µM": "> 401"},
      {"smiles": "O=[N+]([O-])c1ccc2nc(-c3ccccn3)oc2c1", "note": "[Example 223, 6-nitro-2-(pyridin-2-yl)benzo[d]oxazole]", "activity at 10 µM": "< 200"},
      {"smiles": "Cc1cc2nc(-c3ccc(Cl)cc3Cl)oc2cc1C", "note": "[Example 224, 2-(2,4-dichlorophenyl)-5,6-dimethylbenzo[d]oxazole]", "activity at 10 µM": "> 401"},
      {"smiles": "CCCC(=O)Nc1ccc2oc(-c3cccc(C(F)(F)F)c3)nc2c1", "note": "[Example 225, N-(2-(3-(trifluoromethyl)phenyl)benzo[d]oxazol-5-yl)butyramide]", "activity at 10 µM": "< 200"},
      {"smiles": "Cc1ccccc1-c1nc2cc(NC(=O)C(C)C)ccc2o1", "note": "[Example 226, N-(2-o-tolylbenzo[d]oxazol-5-yl)isobutyramide]", "activity at 10 µM": "> 401"},
      {"smiles": "CCCC(=O)Nc1ccc2oc(Cc3ccccc3)nc2c1", "note": "[Example 227, N-(2-benzylbenzo[d]oxazol-5-yl)butyramide]", "activity at 10 µM": "< 200"},
      {"smiles": "CC(C)C(=O)Nc1ccc2oc(Cc3ccccc3)nc2c1", "note": "[Example 228, N-(2-benzylbenzo[d]oxazol-5-yl)isobutyramide]", "activity at 10 µM": "< 200"},
      {"smiles": "CCCC(=O)Nc1ccc2oc(-c3ccccc3Cl)nc2c1", "note": "[Example 229, N-(2-(2-chlorophenyl)benzo[d]oxazol-5-yl)butyramide]", "activity at 10 µM": "301 to 400"},
      {"smiles": "CC(C)C(=O)Nc1ccc2oc(-c3ccccc3Cl)nc2c1", "note": "[Example 230, N-(2-(2-chlorophenyl)benzo[d]oxazol-5-yl)isobutyramide]", "activity at 10 µM": "> 401"},
      {"smiles": "CC(C)C(=O)Nc1ccc2oc(-c3cccc(Cl)c3)nc2c1", "note": "[Example 231, N-(2-(3-chlorophenyl)benzo[d]oxazol-5-yl)isobutyramide]", "activity at 10 µM": "> 401"},
      {"smiles": "Nc1ccc2oc(-c3cccc(F)c3)nc2c1", "note": "[Example 232, 2-(3-fluorophenyl)benzo[d]oxazol-5-amine]", "activity at 10 µM": "> 401"},
      {"smiles": "Cc1ccc(-c2nc3cc(NC(=O)CCC(F)(F)F)ccc3o2)cc1", "note": "[Example 233, 4,4,4-trifluoro-N-(2-p-tolylbenzo[d]oxazol-5-yl)butanamide]", "activity at 10 µM": "< 200"},
      {"smiles": "Cc1ccc(-c2nc3c(N)cccc3o2)cc1", "note": "[Example 234, 2-p-tolylbenzo[d]oxazol-4-amine]", "activity at 10 µM": "301 to 400"},
      {"smiles": "CCCC(=O)Nc1cccc2oc(-c3ccc(C)cc3)nc12", "note": "[Example 235, N-(2-p-tolylbenzo[d]oxazol-4-yl)butyramide]", "activity at 10 µM": "< 200"},
      {"smiles": "Cc1ccc(-c2nc3c(NC(=O)C(C)C)cccc3o2)cc1", "note": "[Example 236, N-(2-p-tolylbenzo[d]oxazol-4-yl)isobutyramide]", "activity at 10 µM": "< 200"},
      {"smiles": "Cc1ccc(-c2nc3ccc(N)cc3o2)cc1", "note": "[Example 237, 2-p-tolylbenzo[d]oxazol-6-amine]", "activity at 10 µM": "> 401"},
      {"smiles": "Cc1cc(NC(=O)c2ccc(F)cc2F)c(OC(=O)c2ccc(F)cc2F)cc1C", "note": "[Example 238, 2-(2,4-difluorobenzamido)-4,5-dimethylphenyl 2,4-difluorobenzoate]", "activity at 10 µM": "< 200"},
      {"smiles": "CCCC(=O)Nc1ccc2oc(-c3cccc(Cl)c3)nc2c1", "note": "[Example 239, N-(2-(3-chlorophenyl)benzo[d]oxazol-5-yl)butyramide]", "activity at 10 µM": "< 200"}
    ]}
  ]
}
